Reference: paper PMC10175918 (Communications Biology, 2023)
Where two headings read alike, the source gives them in different places.

Assays:
Experiment in all cases: TGFα-shedding assay-based GPCR screening with chimeric Gα subunit proteins
Assay type in all cases: cell-based
[1] = biological target: T1, 348 GPCRs (Homo sapiens, UniProt Q9GZP7)
T1 construct: expressed in transfected cells; host or cells: HEK293A
T1 sequence (Q9GZP7 1-353): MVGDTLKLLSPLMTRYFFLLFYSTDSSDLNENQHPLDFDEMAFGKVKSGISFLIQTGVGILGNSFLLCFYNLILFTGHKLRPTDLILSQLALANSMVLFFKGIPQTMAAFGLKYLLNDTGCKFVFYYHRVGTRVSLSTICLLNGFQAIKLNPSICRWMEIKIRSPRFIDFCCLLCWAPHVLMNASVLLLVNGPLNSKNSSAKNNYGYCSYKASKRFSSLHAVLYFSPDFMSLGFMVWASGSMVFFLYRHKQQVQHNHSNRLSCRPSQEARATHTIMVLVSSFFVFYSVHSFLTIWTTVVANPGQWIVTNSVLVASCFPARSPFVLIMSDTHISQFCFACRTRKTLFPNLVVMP

[2] = biological target: T2, 348 GPCRs (Homo sapiens, UniProt P08172)
T2 sequence (P08172 1-466): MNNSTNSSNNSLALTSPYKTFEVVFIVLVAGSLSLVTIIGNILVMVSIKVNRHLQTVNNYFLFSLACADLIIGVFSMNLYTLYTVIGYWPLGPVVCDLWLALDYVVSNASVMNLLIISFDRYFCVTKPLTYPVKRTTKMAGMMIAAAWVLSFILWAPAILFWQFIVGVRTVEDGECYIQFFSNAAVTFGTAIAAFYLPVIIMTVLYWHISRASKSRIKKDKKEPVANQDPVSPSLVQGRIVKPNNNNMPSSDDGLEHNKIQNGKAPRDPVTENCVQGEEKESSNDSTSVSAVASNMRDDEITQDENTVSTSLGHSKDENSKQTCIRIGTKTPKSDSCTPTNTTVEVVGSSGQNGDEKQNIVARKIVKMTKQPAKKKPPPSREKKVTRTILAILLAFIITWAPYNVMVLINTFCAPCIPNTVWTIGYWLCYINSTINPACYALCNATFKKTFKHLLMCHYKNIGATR

[3] = biological target: T3, 348 GPCRs (Homo sapiens, UniProt Q8IZF4)
T3 construct: expressed in transfected cells; host or cells: HEK293A
T3 sequence (Q8IZF4 22-528): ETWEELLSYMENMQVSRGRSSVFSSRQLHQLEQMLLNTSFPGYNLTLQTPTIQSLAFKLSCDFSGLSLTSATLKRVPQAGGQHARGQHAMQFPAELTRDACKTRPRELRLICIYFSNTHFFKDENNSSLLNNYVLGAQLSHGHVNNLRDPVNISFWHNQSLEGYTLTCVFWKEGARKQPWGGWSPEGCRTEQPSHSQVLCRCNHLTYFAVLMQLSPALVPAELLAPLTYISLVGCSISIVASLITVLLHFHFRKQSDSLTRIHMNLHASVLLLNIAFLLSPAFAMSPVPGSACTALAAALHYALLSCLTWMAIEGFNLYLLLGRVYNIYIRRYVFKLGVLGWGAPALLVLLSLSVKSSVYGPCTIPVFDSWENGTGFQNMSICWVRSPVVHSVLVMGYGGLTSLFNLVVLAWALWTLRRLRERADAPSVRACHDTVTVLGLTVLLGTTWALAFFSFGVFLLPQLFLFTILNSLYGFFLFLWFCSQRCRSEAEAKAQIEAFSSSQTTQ

[4] = biological target: T4, 348 GPCRs (Homo sapiens, UniProt Q96RI0); conditions: 10µM, Favipiravir 100μM
T4 construct: expressed in transfected cells; host or cells: HEK293A
T4 sequence (Q96RI0 18-385): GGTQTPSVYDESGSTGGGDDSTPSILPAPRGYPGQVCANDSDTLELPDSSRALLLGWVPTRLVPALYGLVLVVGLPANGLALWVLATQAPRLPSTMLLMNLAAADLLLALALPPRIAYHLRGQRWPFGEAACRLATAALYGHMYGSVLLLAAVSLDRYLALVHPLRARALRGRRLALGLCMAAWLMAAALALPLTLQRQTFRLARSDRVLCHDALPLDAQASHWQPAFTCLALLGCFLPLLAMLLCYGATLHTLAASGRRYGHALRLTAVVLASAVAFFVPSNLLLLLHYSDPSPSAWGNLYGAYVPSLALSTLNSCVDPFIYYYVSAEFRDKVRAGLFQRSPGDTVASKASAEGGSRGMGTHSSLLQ

[5] = biological target: T5, 348 GPCRs (Homo sapiens, UniProt Q6DWJ6); conditions: 10µM, Favipiravir 100μM
T5 construct: expressed in transfected cells; host or cells: HEK293A
T5 sequence (Q6DWJ6 1-353): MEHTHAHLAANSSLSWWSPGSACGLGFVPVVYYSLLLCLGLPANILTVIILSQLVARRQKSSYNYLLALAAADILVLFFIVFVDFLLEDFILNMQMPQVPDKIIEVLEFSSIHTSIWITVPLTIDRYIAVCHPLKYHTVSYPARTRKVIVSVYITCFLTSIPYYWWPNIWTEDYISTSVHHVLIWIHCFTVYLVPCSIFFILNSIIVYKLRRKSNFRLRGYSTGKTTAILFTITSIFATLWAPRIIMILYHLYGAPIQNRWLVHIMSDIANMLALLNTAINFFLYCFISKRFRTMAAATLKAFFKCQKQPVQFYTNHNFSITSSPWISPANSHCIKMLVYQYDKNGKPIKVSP

[6] = biological target: T6, 348 GPCRs (Homo sapiens, UniProt Q16570); conditions: 10µM, Favipiravir 100μM
T6 construct: expressed in transfected cells; host or cells: HEK293A
T6 sequence (Q16570 1-336): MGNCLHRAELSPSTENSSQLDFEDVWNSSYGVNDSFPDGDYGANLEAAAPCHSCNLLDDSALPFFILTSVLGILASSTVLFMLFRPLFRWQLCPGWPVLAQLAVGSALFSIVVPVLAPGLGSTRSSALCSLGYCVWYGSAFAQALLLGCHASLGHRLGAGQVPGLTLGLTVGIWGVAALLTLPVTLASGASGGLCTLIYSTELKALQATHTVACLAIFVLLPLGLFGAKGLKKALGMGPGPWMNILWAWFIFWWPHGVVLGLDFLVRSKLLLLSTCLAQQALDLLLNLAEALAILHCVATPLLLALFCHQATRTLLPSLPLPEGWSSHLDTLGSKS

[7] = GPCR VN1R1 (vomeronasal 1 receptor), read-out: % GPCR activation compared to TPA
[8] = GPCR M2 (Muscarinic acetylcholine receptor M2), read-out: % GPCR activation compared to TPA
[9] = GPCR GPR114 (G-protein-coupled receptor 114 (ADGRG5)), read-out: % GPCR activation compared to TPA
[10] = F2RL3 (coagulation factor II (thrombin) receptor-like 3), read-out: % GPCR activation compared to TPA
[11] = GPR139 (G protein-coupled receptor 139), read-out: % GPCR activation compared to TPA
[12] = DARC (Duffy blood group, chemokine receptor), read-out: % GPCR activation compared to TPA
[13] = read-out: % GPCR activation compared to TPA, GPCR VN1R1 (vomeronasal 1 receptor)
[14] = read-out: % GPCR activation compared to TPA, GPCR M2 (Muscarinic acetylcholine receptor M2)
[15] = read-out: % GPCR activation compared to TPA, GPCR GPR114 (G-protein-coupled receptor 114 (ADGRG5))
[16] = read-out: % GPCR activation compared to TPA, F2RL3 (coagulation factor II (thrombin) receptor-like 3)
[17] = read-out: % GPCR activation compared to TPA, GPR139 (G protein-coupled receptor 139)
[18] = read-out: % GPCR activation compared to TPA, DARC (Duffy blood group, chemokine receptor)

| SMILES | activation at 10 µM [1, 7] [%] | activation at 10 µM [2, 8] [%] | activation at 10 µM [3, 9] [%] | activation at 10 µM [4, 10] [%] | activation at 100 µM [5, 11] [%] | activation at 100 µM [6, 12] [%] | activation at 10 µM [1, 13] [%] | activation at 10 µM [2, 14] [%] | activation at 10 µM [3, 15] [%] | activation at 10 µM [4, 16] [%] | activation at 100 µM [5, 17] [%] | activation at 100 µM [6, 18] [%] | activation at 100 µM ([1]; GPCR VN1R1 (vomeronasal 1 receptor), 100μM, read-out: % GPCR activation compared to TPA) [%] | activation at 100 µM ([2]; GPCR M2 (Muscarinic acetylcholine receptor M2), 100μM, read-out: % GPCR activation compared to TPA) [%] | activation at 100 µM ([3]; GPCR GPR114 (G-protein-coupled receptor 114 (ADGRG5)), 100μM, read-out: % GPCR activation compared to TPA) [%] |
| --- | --- | --- | --- | --- | --- | --- | --- | --- | --- | --- | --- | --- | --- | --- | --- |
| N#C[C@@]1(c2ccc3c(N)ncnn23)O[C@H](CO)[C@@H](O)[C@H]1O [GS441524] | 2.87 | 4.87 | -2.76 | 0.403 | -6.35 | 1.78 | – | – | – | – | – | – | – | – | – |
| CCC(CC)COC(=O)[C@H](C)N[P@](=O)(OC[C@H]1O[C@@](C#N)(c2ccc3c(N)ncnn23)[C@H](O)[C@@H]1O)Oc1ccccc1 [remdesivir] | – | – | – | – | – | – | 3.04 | 6 | -1.51 | -0.777 | 2.27 | 5.17 | – | – | – |
| CC(C)OC(=O)[C@H](C)N[P@](=O)(OC[C@H]1O[C@@H](n2ccc(=O)[nH]c2=O)[C@](C)(F)[C@@H]1O)Oc1ccccc1 [sofosbuvir] | – | – | – | – | – | – | -0.898 | 1.35 | 0.492 | 1.49 | -27.2 | -1.56 | – | – | – |
| NC(=O)c1nc(F)cnc1O [favipiravir, 6-fluoro-3-hydroxy-2-pyrazinecarboxamide] | – | – | – | -2.75 | -7.28 | 1.68 | – | – | – | – | – | – | 1.77 | 2.32 | -2.55 |
| CC(C)C(=O)OC[C@H]1O[C@@H](n2ccc(NO)nc2=O)[C@H](O)[C@@H]1O [molnupiravir] | -1.19 | 0.695 | -2.86 | 2.35 | -23.9 | 0.223 | – | – | – | – | – | – | – | – | – |
